The subject of one data set is IRI mice (male SD mice). Kind of data set: Cerebral ischemia-reperfusion injury (IRI) model, TTC dyeing. The settings on record: 2 h ischemia, 24 h reperfusion; caudal vein injection 5 mg/kg (Edaravone 6 mg/kg) after 30 min ischemia. The format is in vivo. The method, then: Experimental animals: healthy male mice, weighing 280-300 grams, purchased from Shanghai SLAC Laboratory Animal Co. Ltd, with quality certificate No. (SCXK (Shanghai) 2007-0005), and kept in clean animal houses.
Establishment of a mouse cerebral ischemia model of mice and experimental method: 280-300 grams of male […] mice were selected for experiments. The male SD mice were subjected to fasting without water deprivation for 12 h before operation followed by weighing, numbering and random grouping. The male SD mice were anesthetized by intraperitoneal injection of 10 wt. % chloral hydrate at a dosage of 0.3 mL/100 g. After the male SD mice had no pain reflexes, they were subjected to neck skin preparation followed by being fixed on a dissecting table in supine position. After neck skins were disinfected with sterilized cotton balls, about 1 cm of the neck skins were cut in mid-cervical to expose subcutaneous tissues, and subcutaneous fat and the fascia were bluntly plucked with curved tweezers to expose neck muscle groups. The common carotid arteries and their upwardly internal and external carotid branches were visualized by opening the digastric muscle. The external, internal, and common carotid arteries were carefully dissected, and a thin wire was threaded under each of the three arteries, and homemade plastic spacers were placed under the common carotid arteries. The external carotid arteries and proximal ends of the common carotid arteries were ligated. After the internal common carotid arteries were clamped by arterial clips, the common carotid arteries were stuck into with homemade curved hooks followed by picking up and leading in monofilaments. The spacers were removed, and the monofilaments were gently pushed into the internal common carotid arteries and craniums. […] At this time, blood supplies of the middle cerebral arteries from the anterior cerebral arteries were blocked. Thin wires under the internal carotid arteries were ligated to secure the monofilaments to prevent the monofilaments from retreating. Excess thin wires were cut, penicillin was applied to wounds to prevent infection. The male SD mice were sutured and placed under a warm lamp to keep warm. Timing was performed when blood flows of the middle cerebral arteries were blocked by the monofilaments. After 2 hours, the monofilaments were gently pulled out and the black marks were seen, then reperfusion can be achieved.
Triphenyl tetrazolium chloride (TTC) dyeing: After being injured by 2 h cerebral ischemia and 24 h reperfusion, the male SD mice were anesthetized with 0.3 mL/100 g dosage of 10 wt. % of chloral hydrate by intraperitoneal injection and subjected to abdominal aorta bleeding to reduce influence of blood in brains. Then whole heads of the male SD mice were removed immediately after decapitating, and washed with normal saline followed by being promptly put into a −20° C. refrigerator to freeze for 20 min. Frozen brains were collected and subjected to coronal sections, each 2 mm of thickness, by a blade. Then the coronal sections were subjected to dark dyeing in a 2 wt. % of TTC solution for 20 min and fixing in a 4 wt. % of polyformaldehyde solution for 6 h followed by photographing. Then, Photoshop software was used to define area and calculate, and a formula was represented as a percentage of cerebral ischemic area=a total area of white area/a total area of ischemic hemisphere×100%.
Drug preparation and experimental grouping: Edaravone was used as a positive control drug, and an Edaravone injection was 30 mg/20 mL. A single dosage for each of the male SD mice was 0.4 mL/100 g, that is, 6 mg/kg. The cyclic dinucleotide metal compounds prepared in Examples 1-5 were prepared into […] injection drugs with the normal saline. Each of the male SD mice was subjected to caudal vein injection with 0.4 mL/100 g dosage of drugs, that is, 5 mg/kg. The male SD mice were divided into 8 groups (10 mice in each group). […]

The test system of data set [1] is mouse colorectal cancer cell line CT26. The method, then:
Experimental animals: BALB/c ordinary mice, male, weighing 20-22 grams, 7-8 weeks old, at SPF level, purchased from Shanghai SLAC Laboratory Animal Co. Ltd.
Tumour cell line herein was the mouse colorectal cancer cell line CT26 purchased from Chinese Academy of Sciences Cell Bank.
Establishment and intervention of tumor model mice: cells were subjected to culture and subculture, collected in the logarithmic phase and prepared as 1.0×10^7/mL of cell suspension. 0.2 mL of the cell suspension was injected armpits of forelegs of the mice (with a cell number of 2.0×10^6), and tumor transplantation was successful in about 7 days. The mice were randomly divided into 5 groups (10 mice in each group). […] The mice were subjected to administration by intraperitoneal injection with the volume of 200 μL per mice once every 2 days for 20 days. After 20 days, the mice were weighed and their blood was collected. Then the mice were killed, and the tumor were weighed. The formula of inhibitory rate of tumor was represented as inhibitory rate of tumor=[1-average tumor weight of experimental group/average tumor weight of the negative control group]×100%.

The mark [2] stands for this setting: oxaliplatin 5 mg/kg alone or + 10 mg/kg compound, intraperitoneal once every 2 days, 20 days.
[3] abbreviates: peripheral blood after 20 days administration.
The mark [4] stands for this setting: serum after 20 days administration.

This is an account of results in patent US20240317792A1, “CYCLIC DINUCLEOTIDE METAL COMPOUND, AND PREPARATION AND APPLICATION THEREOF” (HANGZHOU XINGAO BIOTECHNOLOGY CO., LTD., priority 2022, published 2024).

Molecules are shown by their SMILES.

Consider `CC1=NN(c2ccccc2)C(=O)C1` [Edaravone, reference compound], for which the “Average value of percentage of cerebral ischemic area” value with IRI mice (male SD mice) stood at 28.97%.

In the case of `O=C1[O][Pt]2([NH][C@@H]3CCCC[C@H]3[NH]2)[O]C1=O` [oxaliplatin], the “Inhibitory rate (of tumor)” value in data set [1] (CT26, oxaliplatin 5 mg/kg alone or + 10 mg/kg compound, 20 days) was 78%. In data set [1] (setting [2]), the Survival rate turned out to be 50% and the Weight loss was found to be 40%. In addition, in data set [1] (setting [3]), the Hemoglobin is listed as 88 ± 9 g/L, the Platelets was 368 ± 56 × 10^3/μL, the Red blood cells is on record as 4.51 ± 0.65 × 10^6/μL and the White blood cells is given as 3.87 ± 0.08 × 10^3/μL. Also, in data set [1] (setting [4]), the ALT was 118.25 ± 7.84 U/L and the Creatinine was 80.33 ± 4.65 µmol/L.
